Laboratory results from US20250283049A1, “AGENT FOR CULTURING ORGANOID IN ABSENCE OF EXTRACELLULAR MATRIX” (KEIO UNIVERSITY, priority 2022, published 2025).

Assays:
Format in all cases: cell-based
[1] = test system: human small intestine-derived organoid; test: Culture of organoids in presence of Matrigel and LATS kinase inhibitor; cell number by ATP (CellTiter-Glo 3D); conditions: presence of Matrigel; 10 mM Lats-IN as printed; 7 days of culture; vs control without Lats-IN
Procedure: (§1) A human small intestine-derived organoid and a human large intestine-derived organoid were cultured in the presence of an inhibitor of LATS1 kinase and LATS2 kinase, Lats-IN-1 (CAS No. 1424635-83-5, hereinafter sometimes referred to as “Lats-IN” and also referred to as “TRULI”), and their dynamics were observed.
(§2) The human small intestine-derived organoid and the human large intestine-derived organoid used were those established from tissues derived from patients with gastrointestinal tumors who provided informed consent, in accordance with an ethical research plan approved by the Ethics Committee of the Keio University School of Medicine.
(§3) Each organoid was dissociated into single cells using TrypLE Express (Thermo Fisher Scientific Inc.) to obtain a cell suspension. […]
(§4) The cell proliferation was measured by measuring adenosine triphosphate (ATP) using a commercially available kit (product name “CellTiter-Glo 3D,” Promega Corporation).
(§5) The upper left panel of FIG. 2 is a photograph of a control (Ctrl) human small intestine-derived organoid cultured in the absence of Lats-IN, and the upper center panel of FIG. 2 is a photograph of a human small intestine-derived organoid cultured in the presence of Lats-IN. […] The vertical axis of the graph represents luminescence intensity (relative value) indicating the amount of ATP present.

[2] = test system: human large intestine-derived organoid; test: as above; conditions: presence of Matrigel; 10 mM Lats-IN as printed; 7 days of culture; vs control without Lats-IN
Procedure: as §1, §2, §3, §4
as §5, with “lower” for “upper”, “large” for “small”

[3] = test system: stomach-derived organoids, biliary tract-derived organoids, and mammary gland-derived organoids; test: Culture of organoids derived from various organs in absence of Matrigel; conditions: Lats-IN 10 μM
Procedure: It was examined whether organoids derived from various organs could be cultured in the absence of Matrigel (registered trademark) and in the absence or presence of Lats-IN (final concentration: 10 μM).
FIG. 11 presents representative photographs showing the results of culturing stomach-derived organoids, biliary tract-derived organoids, and mammary gland-derived organoids in the absence of Matrigel (registered trademark) and Lats-IN (Ctrl), or in the absence of Matrigel (registered trademark) and in the presence of Lats-IN (Lats-IN). The scale bar is 100 μm.

[4] = test system: human large intestine-derived organoids; test: Niche factor removal; organoid proliferation by ATP (CellTiter-Glo 3D); conditions: absence of Matrigel; Lats-IN 10 μM; some WRENAIF niche factors removed
Procedure: (§6) In this experimental example, the relationship between LATS inhibition and the niche factors essential for organoid culture was examined. FIG. 14 presents graphs showing the results of measuring the proliferation of human small intestine-derived organoids and human large intestine-derived organoids cultured under conditions in which all WRENAIF niche factors were added, and under conditions in which some of these niche factors were removed. As a medium to which all of the WRENAIF niche factors were added, the medium whose composition is shown in Table 1 above was used, and as a medium from which some of these niche factors were removed, a medium from which the corresponding niche factors were removed from the medium whose composition is shown in Table 1 above was used. The cell proliferation was measured by measuring ATP using a commercially available kit (product name “CellTiter-Glo 3D,” Promega Corporation). The vertical axis of the graph represents luminescence intensity (relative value) indicating the amount of ATP present.
(§7) In addition, on the horizontal axis, added niche factors are shown in black, and niche factors not added are shown in light color.

[5] = test system: human small intestine-derived organoids; test: as above; conditions: absence of Matrigel; Lats-IN 10 μM; some WRENAIF niche factors removed
Procedure: as §6, §7

[6] = test system: phosphorylated ERK (Thr202/Tyr204); test: ERK phosphorylation by Western blotting in human small intestine-derived organoids; conditions: absence of Matrigel; Lats-IN 10 μM
Procedure: Next, human small intestine-derived organoids were cultured in the absence or presence of Matrigel (registered trademark) and in the absence or presence of Lats-IN (final concentration: 10 μM), and ERK phosphorylated by EGF signaling was detected by Western blotting.
FIG. 17 presents graphs showing the results of Western blotting. In FIG. 17, “pERK” represents phosphorylated ERK, and “total ERK” represents total ERK (the sum of phosphorylated ERK and non-phosphorylated ERK). In addition, “pYAP” represents phosphorylated YAP, and “total YAP” represents total YAP (the sum of phosphorylated YAP and non-phosphorylated YAP). The antibody against phosphorylated ERK used was phospho-ERK (Thr202/Tyr204) (#4370, Cell Signaling Technology, Inc.). The antibody against total ERK used was total-ERK (#4695, Cell Signaling Technology, Inc.). The antibody against phosphorylated YAP used was phospho-YAP (Ser127) (#4911, Cell Signaling Technology, Inc.). The antibody against total YAP used was total-YAP (#14074, Cell Signaling Technology, Inc.).

Q: What does the source list for `O=C(N=c1sccn1Cc1ccccc1)c1c[nH]c2ncccc12` [Lats-IN]?
A: cell proliferation (cell number per well, ATP luminescence) [1]: significantly activated; cell proliferation (cell number per well, ATP luminescence) [2]: significantly activated; cell proliferation (photographs) [3]: activated; cell proliferation without one or two niche factors [4]: cells proliferated; cell proliferation without one or two niche factors [5]: cells proliferated; ERK phosphorylation [6]: increased to a level equivalent to that in the presence of Matrigel
